Reference: patent publication US8506947B2 (priority 1999, dated 2013)
Where two headings read alike, the source gives them in different places.

Columns and labels:
[1] = test system: Murine colon adenocarcinoma cells (MC38 cells); assay type: cell-based
hepatic metastases = conditions: cited from earlier work
glioma cells = conditions: cited from earlier work
sarcoma cells = conditions: gpt gene retrovirally transduced; cited from earlier work
[2] = test system: transduced sarcoma cell line; conditions: cited from earlier work
melanoma cells = conditions: after antibody-β-lactamase conjugate; cited from earlier work
intracerebral gliomas = conditions: adenovirus carrying HSV-TK intratumorally, IP GCV twice daily for 6 days; cited from earlier work
[3] = test system: subcutaneous tumors (glioma-breast cancer) retrovirally transduced with CYP2B1; conditions: single IP injection of cyclophosphamide; cited from earlier work

Question: For `Nc1nc(=O)[nH]cc1F` [5-FC, 5-fluorocytosine], which “cells killed as a result of the 5-FC exposure” value [1] is on record?
Answer: ~100%

Question: And the “effect of the 5-FC exposure on cells” value [1]?
Answer: not affected

Question: What does the source list for `Cc1ncnc2c1ncn2[C@H]1C[C@H](O)[C@@H](CO)O1` [6-MPDR, 6-methylpurine deoxyriboside]?
Answer: cure rate (hepatic metastases; every other daily injections of 6-MPDR): 50%; cure rate (hepatic metastases; weekly injections of 6-MPDR): 30%

Question: For `O=c1[nH]c(=S)c2[nH]cnc2[nH]1` [6-TX, 6-thioxanthine], which LD50 (glioma cells; glioma cells transduced with gpt) is on record?
Answer: 2.5 µmol/L

Question: And the “sensitivity of untransfected cells” value (glioma cells; untransfected cells at 50 umol/L)?
Answer: minimally sensitive

Question: What about the increased sensitivity (sarcoma cells) of the same compound?
Answer: 86 fold

Question: What about the “treatment mortality due to toxicity of the converted prodrug” value ([2]; 5 days of treatment with 6-TX) of the same compound?
Answer: 10%

Question: What about the “complete regression, share of the animals” value ([2]; after 5 days of treatment with 6-TX) of the same compound?
Answer: 95%

Question: For `COc1cccc2c1C(=O)c1c(O)c3c(c(O)c1C2=O)C[C@@](O)(C(=O)CO)C[C@@H]3O[C@H]1C[C@H](NC(=O)OCC2=C(C(=O)O)N3C(=O)[C@@H](NC(=O)Cc4ccccc4)[C@H]3SC2)[C@H](O)[C@H](C)O1` [C-Dox, cephalosporin-doxorubicin], which “increase in the sensitivity of cells to the prodrugs” value (melanoma cells) is on record?
Answer: 4 fold

Question: Which results are given for `Nc1nc(O)c2ncn(COC(CO)CO)c2n1` [GCV, Gancyclovir]?
Answer: complete regressions (intracerebral gliomas): 2; decrease in tumor size compared to controls (intracerebral gliomas): 23 fold

Question: For `O=P1(N(CCCl)CCCl)NCCCO1` (stereo not shown) [cyclophosphamide], which “complete inhibition of tumors, share of animals” value [3] is on record?
Answer: 95%
